Consider 34 compounds from patent US10370356B2, “Pyridinone dicarboxamide for use as bromodomain inhibitors” (GlaxoSmithKline Intellectual Property (No. 2) Limited, priority 2015, dated 2019).

Where a name gives a salt, the structure may show the parent alone.

The target in one test is T1, BRD4 BD2 (Homo sapiens, UniProt O60885, Y97A).
T1 construct: BRD4 (1-477) (Y97A) and (Y390A); made in house; host or cells: E. coli (pET15b vector)
Kind of test: BRD4 BD2 mutant TR-FRET competition assay. Type of test: binding. To be noted: average of N recorded values, read-out: BRD4 BD2 IC50 (average value) (converted). In general terms: Time-resolved FRET reads energy transfer from a long-lived donor to a nearby acceptor.
`CNC(=O)c1cc(C(=O)NCCCC2CCNCC2)cn(Cc2cccc(OCCO)c2)c1=O` [Example 23, 1-(3-(2-Hydroxyethoxy)benzyl)-N^3-methyl-2-oxo-N^5-(3-(piperidin-4-yl)propyl)-1,2-dihydropyridine-3,5-dicarboxamide]: the IC50 was 50.1 nM.
On the same count and under the same terms, as for `CNC(=O)c1cc(C(=O)NCCCC2CCNCC2)cn(Cc2ccccc2)c1=O` [Example 6a, 1-Benzyl-N^3-methyl-2-oxo-N^5-(3-(piperidin-4-yl)propyl)-1,2-dihydropyridine-3,5-dicarboxamide], the figure is 31.6 nM.

The same test, now with this note: read-out: pIC50 in the BRD4 BD2 assay (converted).
For `CNC(=O)c1cc(C(=O)NCCC2CN(C(C)=O)CCO2)cn(Cc2ccccc2)c1=O` (stereo not drawn) [Example 65, N^5-(2-(4-acetylmorpholin-2-yl)ethyl)-1-benzyl-N^3-methyl-2-oxo-1,2-dihydropyridine-3,5-dicarboxamide], the IC50 was 100 to 1000 nM.
The same measure, in the same setting: the result for `CNC(=O)c1cc(C(=O)NCCCC2CCNCC2)cn(Cc2cccc(OCCO)c2)c1=O` [Example 23, 1-(3-(2-Hydroxyethoxy)benzyl)-N^3-methyl-2-oxo-N^5-(3-(piperidin-4-yl)propyl)-1,2-dihydropyridine-3,5-dicarboxamide] reads no more than 100 nM; that for `CNC(=O)c1cc(C(=O)NCCCC2CCNCC2)cn(Cc2cccc(C)c2)c1=O` [Example 15, N^3-Methyl-1-(3-methylbenzyl)-2-oxo-N^5-(3-(piperidin-4-yl)propyl)-1,2-dihydropyridine-3,5-dicarboxamide], no more than 100 nM.
On to `CNC(=O)c1cc(C(=O)NCCCN2CCOCC2)cn(Cc2ccccc2)c1=O` [Example 37, 1-Benzyl-N^3-methyl-N^5-(3-morpholinopropyl)-2-oxo-1,2-dihydropyridine-3,5-dicarboxamide], for which the IC50 is 100 to 1000 nM.
For the compound `CNC(=O)c1cc(C(=O)NC2CNC2)cn(Cc2ccccc2)c1=O` [Example 33, N^5-(Azetidin-3-l)-1-benzyl-N^3-methyl-2-oxo-1,2-dihydropyridine-3,5-dicarboxamide], the IC50 is 100 to 1000 nM.
Same read-out and setting: as for `CNC(=O)c1cc(C(=O)NCCCC2CCCN(CCF)C2)cn(Cc2ccccc2)c1=O` (stereo not drawn) [Example 71], the figure is no more than 100 nM; as for `CNC(=O)c1cc(C(=O)NCCC2CCNCC2)cn(Cc2cccc(OC)c2)c1=O` [Example 20, 1-(3-Methoxybenzyl)-N^3-methyl-2-oxo-N^5-(2-(piperidin-4-yl)ethyl)-1,2-dihydropyridine-3,5-dicarboxamide], 100 to 1000 nM.
On the same count and under the same terms, the result for `CNC(=O)c1cc(C(=O)NCCCC2CCNCC2)cn(Cc2ccccc2)c1=O` [Example 6a, 1-Benzyl-N^3-methyl-2-oxo-N^5-(3-(piperidin-4-yl)propyl)-1,2-dihydropyridine-3,5-dicarboxamide] reads no more than 100 nM; that for `CNC(=O)c1cc(C(=O)NCCC2CCN(C(=O)OC(C)(C)C)CC2)cn(Cc2ccccc2)c1=O` [Example 32, tert-Butyl 4-(2-(1-benzyl-5-(methylcarbamoyl)-6-oxo-1,6-dihydropyridine-3-carboxamido)ethyl)piperidine-1-carboxylate], 100 to 1000 nM; that for `CNC(=O)c1cc(C(=O)NCCC2CCOC2)cn(Cc2ccccc2)c1=O` (stereo not drawn) [Example 9, 1-Benzyl-N^3-methyl-2-oxo-N^5-(2-(tetrahydrofuran-3-yl)ethyl)-1,2-dihydropyridine-3,5-dicarboxamide], 100 to 1000 nM.
On the same count and under the same terms, as for `CNC(=O)c1cc(C(=O)NCCC2CNCCO2)cn(Cc2ccccc2)c1=O` (stereo not drawn) [Example 66, 1-benzyl-N^3-methyl-N^5-(2-(morpholin-2-yl)ethyl)-2-oxo-1,2-dihydropyridine-3,5-dicarboxamide hydrochloride], the figure is 100 to 1000 nM; as for `CNC(=O)c1cc(C(=O)NCCCC2(F)CCNCC2)cn(Cc2ccccc2)c1=O` [Example 61, 1-Benzyl-N^5-(3-(4-fluoropiperidin-4-yl)propyl)-N^3-methyl-2-oxo-1,2-dihydropyridine-3,5-dicarboxamide hydrochloride], no more than 100 nM; as for `CNC(=O)c1cc(C(=O)NCCCC2(O)CCNCC2)cn(Cc2ccccc2)c1=O` [Example 57, 1-Benzyl-N^5-(3-(4-hydroxypiperidin-4-yl)propyl)-N^3-methyl-2-oxo-1,2-dihydropyridine-3,5-dicarboxamide], no more than 100 nM.
As for `CNC(=O)c1cc(C(=O)N[C@H]2[C@@H]3CN(CCNC(=O)OC(C)(C)C)C[C@@H]32)cn(Cc2cccc3[nH]ccc23)c1=O` [Example 85, tert-Butyl (2-((1R,5S,6s)-6-(1-((1H-indol-4-yl)methyl)-5-(methylcarbamoyl)-6-oxo-1,6-dihydropyridine-3-carboxamido)-3-azabicyclo[3.1.0]hexan-3-yl)ethyl)carbamate], the IC50 is no more than 100 nM.
`CNC(=O)c1cc(C(=O)NC2CCCS(=O)(=O)C2)cn(Cc2ccccc2)c1=O` (stereo not drawn) [Example 42, 1-Benzyl-N^5-(1,1-dioxidotetrahydro-2H-thiopyran-3-yl)-N^3-methyl-2-oxo-1,2-dihdyropyridine-3,5-dicarboxamide]: the IC50 was 1000 to 100000 nM.
On the same count and under the same terms, the result for `CNC(=O)c1cc(C(=O)NC[C@H]2CCCOC2)cn(Cc2ccccc2)c1=O` [Example 46, (R)-1-Benzyl-N^3-methyl-2-oxo-N^5-((tetrahydro-2H-pyran-3-yl)methyl)-1,2-dihydropyridine-3,5-dicarboxamide] reads 100 to 1000 nM; that for `CNC(=O)c1cc(C(=O)NCCC2CCN(C)C2)cn(Cc2ccccc2)c1=O` (stereo not drawn) [Example 36, 1-Benzyl-N^3-methyl-N^5-(2-(1-methylpyrrolidin-3-yl)ethyl)-2-oxo-1,2-dihydropyridine-3,5-dicarboxamide], 100 to 1000 nM; that for `CNC(=O)c1cc(C(=O)N[C@H]2[C@@H]3CN(CCNC(C)=O)C[C@@H]32)cn(Cc2cccc3[nH]ccc23)c1=O` [Example 87, 1-((1H-Indol-4-yl)methyl)-N^5-((1R,5S,6s)-3-(2-acetamidoethyl)-3-azabicyclo[3.1.0]hexan-6-yl)-N^3-methyl-2-oxo-1,2-dihydrouridine-3,5-dicarboxamide], no more than 100 nM.
As to `CNC(=O)c1cc(C(=O)N[C@H]2[C@@H]3CNC[C@@H]32)cn(Cc2ccccc2)c1=O` [Example 76, 1-Benzyl-N^5-((1R,5S,6s)-3-azabicyclo[3.1.0]hexan-6-yl)-N^3-methyl-2-oxo-1,2-dihydropyridine-3,5-dicarboxamide], the IC50 was no more than 100 nM.
Same read-out and setting: the result for `CNC(=O)c1cc(C(=O)N[C@H]2[C@@H]3COC[C@@H]32)cn(Cc2cccc(OC)c2)c1=O` [Example 72, N5-((1R,5S,6r)-3-Oxabicyclo[3.1.0]hexan-6-yl)-1-(3-methoxybenzyl)-N^3-methyl-2-oxo-1,2-dihydropyridine-3,5-dicarboxamide] reads no more than 100 nM; that for `CNC(=O)c1cc(C(=O)NCCCN2CCS(=O)(=O)CC2)cn(Cc2ccccc2)c1=O` [Example 52, 1-Benzyl-N^5-(3-(1,1-dioxidothiomorpholino)propyl)-N^3-methyl-2-oxo-1,2-dihydropyridine-3,5-dicarboxamide], 100 to 1000 nM.
On to `CNC(=O)c1cc(C(=O)NC2CN(S(C)(=O)=O)C2)cn(Cc2ccccc2)c1=O` [Example 90, 1-benzyl-N^3-methyl-N^5-(1-(methylsulfonyl)azetidin-3-yl)-2-oxo-1,2-dihydropyridine-3,5-dicarboxamide], for which the IC50 is 100 to 1000 nM.
Still for that read-out and setting: as for `CCNC(=O)c1cc(C(=O)NCCC[C@@H]2CNCCO2)cn(Cc2ccccc2)c1=O` [Example 84, (R)-1-benzyl-N^3-ethyl-N^5-(3-(morpholin-2-yl)propyl)-2-oxo-1,2-dihydropyridine-3,5-dicarboxamide], the figure is no more than 100 nM; as for `CNC(=O)c1cc(C(=O)N[C@H]2[C@@H]3CN(C(=O)OC(C)(C)C)C[C@@H]32)cn(Cc2ccccc2)c1=O` [Example 75, (1R,5S,6s)-Tert-butyl 6-(1-benzyl-5-(methylcarbamoyl)-6-oxo-1,6-dihydropyridine-3-carboxamido)-3-azabicyclo[3.1.0]hexane-3-carboxylate], no more than 100 nM; as for `CNC(=O)c1cc(C(=O)NCCC2CCS(=O)(=O)CC2)cn(Cc2ccccc2)c1=O` [Example 13, 1-Benzyl-N^5-(2-(1,1-dioxidotetrahydro-2H-thiopyran-4-yl)ethyl)-N^3-methyl-2-oxo-1,2-dihydropyridine-3,5-dicarboxamide], 100 to 1000 nM.
The same measure, in the same setting: the result for `CNC(=O)c1cc(C(=O)NCCCC2CCN(C(=O)OC(C)(C)C)CC2)cn(Cc2ccccc2)c1=O` [Example 5] reads 100 to 1000 nM.
As for `CNC(=O)c1cc(C(=O)NCC2CCOCC2)cn(Cc2ccccc2)c1=O` [Example 49, 1-Benzyl-N^3-methyl-2-oxo-N^5-((tetrahydro-2H-pyran-4-yl)methyl)-1,2-dihydroopyridine-3,5-dicarboxamide], the IC50 was 100 to 1000 nM.
The same measure, in the same setting: the result for `CNC(=O)c1cc(C(=O)NC2CN(C(=O)OC(C)(C)C)C2)cn(Cc2ccccc2)c1=O` [Example 4, tert-Butyl 3-(1-benzyl-5-(methylcarbamoyl)-6-oxo-1,6-dihydropyridine-3-carboxamido)azetidine-1-carboxylate] reads 100 to 1000 nM; that for `CNC(=O)c1cc(C(=O)NCCCC2CCN(CC(F)(F)F)CC2)cn(Cc2ccccc2)c1=O` [Example 10], no more than 100 nM.
Consider `CNC(=O)c1cc(C(=O)NCCC2CCCOC2)cn(Cc2ccccc2)c1=O` (stereo not drawn) [Example 31, 1-Benzyl-N^3-methyl-2-oxo-N^5-(2-(tetrahydro-2H-pyran-3-yl)ethyl)-1,2-dihydropyridine-3,5-dicarboxamide], for which the IC50 is 100 to 1000 nM.
For `CNC(=O)c1cc(C(=O)NCCC2CCNCC2)cn(Cc2cccc(C)c2F)c1=O` [Example 27, 1-(2-Fluoro-3-methylbenzyl)-N^3-methyl-2-oxo-N^5-(2-(piperidin-4-yl)ethyl)-1,2-dihydropyridine-3,5-dicarboxamide], the IC50 was 100 to 1000 nM.
Take `CNC(=O)c1cc(C(=O)NCCCC2CCN(CC(F)F)CC2)cn(Cc2ccccc2)c1=O` [Example 28]: the IC50 was no more than 100 nM.
Still for that read-out and setting: the result for `CNC(=O)c1cc(C(=O)NC[C@@H]2CCCOC2)cn(Cc2ccccc2)c1=O` [Example 47, (S)-1-Benzyl-N^3-methyl-2-oxo-N^5-((tetrahydro-2H-pyran-3-yl)methyl)-1,2-dihydropyridine-3,5-dicarboxamide] reads 100 to 1000 nM; that for `CNC(=O)c1cc(C(=O)NCCCC2CCN(C(C)=O)CC2)cn(Cc2ccccc2)c1=O` [Example 8, N^5-(3-(1-Acetylpiperidin-4-yl)propyl)-1-benzyl-N^3-methyl-2-oxo-1,2-dihydropyridine-3,5-dicarboxamide], 100 to 1000 nM.
